Results: ChEMBL document CHEMBL3137667, “[Drug-induced liver injury; fourteenth updated edition of the bibliographic database of liver injuries and related drugs]” (Gastroenterol Clin Biol, 2004)

What was measured:
[1] = Highest frequency of moderate liver toxicity observed during clinical trials, expressed as a percentage. [column '% BIOL' in source]; conditions: human
[2] = human
[3] = human, serum
[4] = human, serum; remark: listed apart in the source
[5] = human; remark: listed apart in the source
[6] = human; remark: listed apart in the source
[7] = human; remark: listed apart in the source
[8] = human; remark: listed apart in the source
[9] = Presence of at least one case with successful reintroduction. [column 'REINT' in source]; conditions: human
[10] = Highest frequency of acute liver toxicity observed during clinical trials, expressed as a percentage. [column '% AIGUE' in source]; conditions: human
[11] = human; remark: listed apart in the source
[12] = human; remark: listed apart in the source
[13] = human, serum, 4383 h
[14] = Times to onset, minimal and maximal, observed in the indexed observations. [column 'DELAI' in source]; conditions: human
[15] = human; remark: listed apart in the source
[16] = Proposed mechanism(s) of liver damage. [column 'MEC' in source]; conditions: human
[17] = human; remark: listed apart in the source
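Throughout, for Hepatotoxicity (association with vascular disease): count of indexed literature references reporting vascular liver injury in humans, e.g. peliosis hepatitis, hepatic veno-occlusive disease or Budd-Chiari syndrome.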
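Throughout, for Hepatotoxicity (benign tumour): value is a count of indexed literature references citing a benign tumour confirmed by histopathology.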
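Throughout, for Hepatotoxicity (choleostasis): human cholestatic liver injury, shown by histopathology or by peak ALT or AST elevation over alkaline phosphatase ratio below 2, value counts indexed literature reports.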
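Throughout, for Hepatotoxicity (chronic liver disease): chronic liver injury confirmed by histopathology or persistently raised serum aminotransferase activity beyond 6 months, value given as the count of indexed literature references.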
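Throughout, for Hepatotoxicity (cirrhosis): value is a count of indexed literature references reporting cirrhosis confirmed by histopathology.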
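Throughout, for Hepatotoxicity (cytolytic): human cytolytic liver injury, shown by histopathology or by a ratio above 5 of peak ALT or AST elevation to alkaline phosphatase elevation, value counts indexed references.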
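Throughout, for Hepatotoxicity (granulomatous hepatitis): value is a count of indexed literature references reporting granulomatous liver disease confirmed by histopathology.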
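Throughout, for Hepatotoxicity (malignant tumour): malignant tumour confirmed by histopathology, value gives the count of indexed literature references reporting it.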
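Throughout, for Hepatotoxicity (severe hepatitis): human clinical data: severe hepatitis, meaning potentially life-threatening liver failure or clinically observed cases, the value counts how many indexed literature references report it.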
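Throughout, for Hepatotoxicity (steatosis): steatosis confirmed by histopathology, value is the count of indexed references.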

| SMILES | Hepatotoxicity (acute) [3] | Hepatotoxicity (moderate) [4] | Hepatotoxicity (cirrhosis) [5] | Hepatotoxicity (association with vascular disease) [8] | Hepatotoxicity (successful reintroduction) [9] | Hepatotoxicity (benign tumour) [11] | Hepatotoxicity (steatosis) [12] | Hepatotoxicity (chronic liver disease) [13] | Hepatotoxicity (time to onset) [14] | Hepatotoxicity (malignant tumour) [15] | Hepatotoxicity (moderate) [1] [%] | Hepatotoxicity (choleostasis) [2] | Hepatotoxicity (granulomatous hepatitis) [6] | Hepatotoxicity (cytolytic) [7] | Hepatotoxicity (acute) [10] [%] | Hepatotoxicity (mechanism) [16] | Hepatotoxicity (severe hepatitis) [17] | also measured |
| --- | --- | --- | --- | --- | --- | --- | --- | --- | --- | --- | --- | --- | --- | --- | --- | --- | --- | --- |
| Cc1cccc(Nc2ccccc2C(=O)O)c1C [MEFENAMIC ACID] | 3 | 0 | 0 | 0 | yes | 0 | 0 | 0 | 2 weeks | 0 |  |  |  |  |  |  |  | Hepatotoxicity (moderate) ([1]; Liver): 0%; Hepatotoxicity (choleostasis) ([2]; Liver): 1; Hepatotoxicity (granulomatous hepatitis) ([6]; Liver): 0; Hepatotoxicity (cytolytic) ([7]; Liver): 2; Hepatotoxicity (acute) ([10]; Liver): 0%; Hepatotoxicity (mechanism) ([16]; Liver): Allergic; Hepatotoxicity (severe hepatitis) ([17]; Liver): 1 |
| CC(=O)Oc1cc(C(C)C)c(OCCN(C)C)cc1C [MOXISYLYTE] | 5 | 1 | 0 | 0 | yes | 0 | 0 | 0 | 8 days - 3 months | 0 | 0 | 1 | 0 | 5 | 0 | Allergic, Dose-dependant | 0 |  |
| CCc1nn(CCCN2CCN(c3cccc(Cl)c3)CC2)c(=O)n1CCOc1ccccc1 [NEFAZODONE] | 16 | 4 | 0 | 0 | yes | 0 | 0 | 0 | 1 week - 2 years | 0 | 0 | 0 | 0 | 14 | 0 | Allergic | 11 |  |
| NC(=O)c1cccnc1 [NIACINAMIDE] | 2 | 1 | 0 | 0 | yes | 0 | 0 | 0 | < 2 months - 3 months | 0 | 6.3 | 0 | 0 | 1 | 0 | Dose-dependant | 0 |  |
| O=C(O)c1cccnc1Nc1cccc(C(F)(F)F)c1 [NIFLUMIC ACID] | 4 | 0 | 0 | 0 | yes | 0 | 0 | 0 | 3 days - 3.5 weeks | 0 | 0 | 1 | 0 | 4 | 0 | Allergic | 2 |  |
| COc1ccc2[nH]c([S+]([O-])Cc3ncc(C)c(OC)c3C)nc2c1 (stereo not given) [OMEPRAZOLE] | 10 | 24 | 0 | 0 | yes | 0 | 0 | 0 | 2 days - 1 year | 0 | 47 | 3 | 0 | 8 | 3.1 | Dose-dependant | 1 |  |
| O=C1c2ccccc2C(=O)C1c1ccccc1 [PHENINDIONE] | 13 | 1 | 0 | 0 | yes | 0 | 0 | 0 | 1 week - 2 months | 0 | 0 | 11 | 1 | 3 | 0.2 | Allergic | 1 |  |
| CC(C(=O)O)c1ccc(N2CC=CC2)c(Cl)c1 (stereo not given) [PIRPROFEN] | 9 | 5 | 1 | 0 | yes | 0 | 2 | 1 | 1 week - 1 year | 0 | 2.8 | 2 | 0 | 9 | 0.3 | Toxic Metabolite | 8 |  |
| Cc1ncc(CO)c(CO)c1O [PYRIDOXINE] | 1 | 2 | 0 | 0 | yes | 0 | 0 | 0 | 2 months | 0 |  |  |  |  |  |  |  | Hepatotoxicity (moderate) ([1]; Liver): 6%; Hepatotoxicity (choleostasis) ([2]; Liver): 0; Hepatotoxicity (granulomatous hepatitis) ([6]; Liver): 0; Hepatotoxicity (cytolytic) ([7]; Liver): 1; Hepatotoxicity (acute) ([10]; Liver): 0%; Hepatotoxicity (mechanism) ([16]; Liver): Dose-dependant; Hepatotoxicity (severe hepatitis) ([17]; Liver): 0 |
| CCC1NC(=O)c2cc(S(N)(=O)=O)c(Cl)cc2N1 (stereo not given) [QUINETHAZONE] | 1 | 0 | 0 | 0 | yes | 0 | 0 | 0 | 2 months | 0 | 0 | 1 | 0 | 0 | 0 | Allergic | 0 |  |
